# Data: patent US20230312577A1, “DUAL KINASE-BROMODOMAIN INHIBITORS” (MONASH UNIVERSITY, priority 2020, published 2023)
# Tested on: OPM2 cells
# Assay: Cell proliferation assay (ViaLight, cellular ATP)
# Assay type: cell-based
# Conditions: Homo sapiens, OPM-2, 120 h, 5 days, 5 μM to 1 nM
# Protocol: OPM2 cells (1×10^3) were plated in a 96 well plate. Test compounds were added to cells at final concentrations ranging from 5 μM to 1 nM. They were incubated for 5 days before they were analysed using ViaLight luminescence-based proliferation assays which detect cellular ATP, as per the manufacturer's instructions. All samples were prepared in technical triplicates. Data analysis was performed in GraphPad Prism version 7.00 for Mac OS X, (GraphPad Software, San Diego California USA) in order to calculate the GI50.
row,SMILES,GI50 [nM]
1,"CC(=O)N1c2ccc(-c3cccc(CNC(=O)c4cn5cc(-c6cnc(N)nc6)nc(N6CCOCC6)c5n4)c3)cc2CC[C@@H]1C [Cpd 011, (S)-N-(3-(1-acetyl-2-methyl-1,2,3,4-tetrahydroquinolin-6-yl)benzyl)-6-(2-aminopyrimidin-5-yl)-8-morpholinoimidazo[1,2-a]pyrazine-2-carboxamide]",100 to 500
2,"CC(=O)N1c2ccc(-c3ccc(C(=O)NCCNC(=O)c4cn5cc(-c6cnc(N)nc6)nc(N6CCOCC6)c5n4)cc3)cc2CC[C@@H]1C [Cpd 012, (S)-N-(2-(4-(1-Acetyl-2-methyl-1,2,3,4-tetrahydroquinolin-6-yl)benzamido)ethyl)-6-(2-aminopyrimidin-5-yl)-8-morpholinoimidazo[1,2-a]pyrazine-2-carboxamide]",≤ 100
3,"CC(=O)N1c2ccc(-c3ccc(C(=O)N4CCN(Cc5cn6cc(-c7cnc(N)nc7)nc(N7CCOCC7)c6n5)CC4)cc3)cc2CC[C@@H]1C [Cpd 014, (S)-1-(6-(4-(4-((6-(2-Aminopyrimidin-5-yl)-8-morpholinoimidazo[1,2-a]pyrazin-2-yl)methyl)piperazine-1-carbonyl)phenyl)-2-methyl-3,4-dihydroquinolin-1(2H)-yl)ethan-1-one]",100 to 500
4,"CC(=O)N1c2ccc(-c3ccc(CN4CCN(Cc5cn6cc(-c7cnc(N)nc7)nc(N7CCOCC7)c6n5)CC4)cc3)cc2CC[C@@H]1C [Cpd 015, (S)-1-(6-(4-((4-((6-(2-Aminopyrimidin-5-yl)-8-morpholinoimidazo[1,2-a]pyrazin-2-yl)methyl)piperazin-1-yl)methyl)phenyl)-2-methyl-3,4-dihydroquinolin-1(2H)-yl)ethan-1-one]",100 to 500
5,"CC(=O)N1c2ccc(-c3ccc(C(=O)NCc4cn5cc(-c6cnc(N)nc6)nc(N6CCOCC6)c5n4)cc3)cc2CC[C@@H]1C [Cpd 016, (S)-4-(1-Acetyl-2-methyl-1,2,3,4-tetrahydroquinolin-6-yl)-N-((6-(2-aminopyrimidin-5-yl)-8-morpholinoimidazo[1,2-a]pyrazin-2-yl)methyl)benzamide]",100 to 500
6,"CC(=O)N1c2ccc(-c3cccc(C(=O)NCc4cn5cc(-c6cnc(N)nc6)nc(N6CCOCC6)c5n4)c3)cc2CC[C@@H]1C [Cpd 017, (S)-3-(1-Acetyl-2-methyl-1,2,3,4-tetrahydroquinolin-6-yl)-N-((6-(2-aminopyrimidin-5-yl)-8-morpholinoimidazo[1,2-a]pyrazin-2-yl)methyl)benzamide]",100 to 500
7,"CC(=O)N1c2ccc(-c3ccc(CC(=O)NCc4cn5cc(-c6cnc(N)nc6)nc(N6CCOCC6)c5n4)cc3)cc2CC[C@@H]1C [Cpd 018, (S)-2-(4-(1-Acetyl-2-methyl-1,2,3,4-tetrahydroquinolin-6-yl)phenyl)-N-((6-(2-aminopy-rimidin-5-yl)-8-morpholinoimidazo[1,2-a]pyrazin-2-yl)methyl)acetamide]",100 to 500
8,"CC(=O)N1c2ccc(-c3cccc(CC(=O)NCc4cn5cc(-c6cnc(N)nc6)nc(N6CCOCC6)c5n4)c3)cc2CC[C@@H]1C [Cpd 019, (S)-2-(3-(1-Acetyl-2-methyl-1,2,3,4-tetrahydroquinolin-6-yl)phenyl)-N-((6-(2-aminopy-rimidin-5-yl)-8-morpholinoimidazo[1,2-a]pyrazin-2-yl)methyl)acetamide]",100 to 500
9,"CC(=O)N1c2ccc(-c3ccc(NC(=O)Cc4cn5cc(-c6cnc(N)nc6)nc(N6CCOCC6)c5n4)cc3)cc2CC[C@@H]1C [Cpd 022, (S)-N-(4-(1-acetyl-2-methyl-1,2,3,4-tetrahydroquinolin-6-yl)phenyl)-2-(6-(2-aminopyrimidin-5-yl)-8-morpholinoimidazo[1,2-a]pyrazin-2-yl)acetamide]",≤ 100
10,"CC(=O)N1c2ccc(-c3cccc(NC(=O)Cc4cn5cc(-c6cnc(N)nc6)nc(N6CCOCC6)c5n4)c3)cc2CC[C@@H]1C [Cpd 023, (S)-N-(3-(1-acetyl-2-methyl-1,2,3,4-tetrahydroquinolin-6-yl)phenyl)-2-(6-(2-aminopyrimidin-5-yl)-8-morpholinoimidazo[1,2-a]pyrazin-2-yl)acetamide]",100 to 500
11,"CC(=O)N1c2ccc(-c3ccc(CNC(=O)Cc4cn5cc(-c6cnc(N)nc6)nc(N6CCOCC6)c5n4)cc3)cc2CC[C@@H]1C [Cpd 024, (S)-N-(4-(1-acetyl-2-methyl-1,2,3,4-tetrahydroquinolin-6-yl)benzyl)-2-(6-(2-aminopyrimidin-5-yl)-8-morpholinoimidazo[1,2-a]pyrazin-2-yl)acetamide]",> 500
12,"CC(=O)N1c2ccc(-c3cccc(CNC(=O)Cc4cn5cc(-c6cnc(N)nc6)nc(N6CCOCC6)c5n4)c3)cc2CC[C@@H]1C [Cpd 025, (S)-N-(3-(1-acetyl-2-methyl-1,2,3,4-tetrahydroquinolin-6-yl)benzyl)-2-(6-(2-aminopyrimidin-5-yl)-8-morpholinoimidazo[1,2-a]pyrazin-2-yl)acetamide]",100 to 500
13,"CC(=O)N1c2ccc(-c3ccc(C(=O)N(C)CCN(C)C(=O)c4cn5cc(-c6cnc(N)nc6)nc(N6CCOCC6)c5n4)cc3)cc2CC[C@@H]1C [Cpd 036, (S)-N-(2-(4-(1-Acetyl-2-methyl-1,2,3,4-tetrahydroquinolin-6-yl)-N-methylbenzamido)ethyl)-6-(2-aminopyrimidin-5-yl)-N-methyl-8-morpholinoimidazo[1,2-a]pyrazine-2-carboxamide]",> 500
14,"CC(=O)N1c2ccc(-c3ccc(CN(C)C(=O)c4cn5cc(-c6cnc(N)nc6)nc(N6CCOCC6)c5n4)cc3)cc2CC[C@@H]1C [Cpd 037, (S)-N-(4-(1-acetyl-2-methyl-1,2,3,4-tetrahydroquinolin-6-yl)benzyl)-6-(2-aminopyrimidin-5-yl)-N-methyl-8-morpholinoimidazo[1,2-a]pyrazine-2-carboxamide]",100 to 500
15,"CC(=O)N1c2ccc(-c3ccc(CN(C)C(=O)c4cc5nc(-c6cnc(N)nc6)nc(N6CCOCC6)c5s4)cc3)cc2CC[C@@H]1C [Cpd 038, (S)-N-(4-(1-acetyl-2-methyl-1,2,3,4-tetrahydroquinolin-6-yl)benzyl)-2-(2-aminopyrimidin-5-yl)-N-methyl-4-morpholinothieno[3,2-d]pyrimidine-6-carboxamide]",> 500
16,"CC(=O)N1c2ccc(-c3ccc(CN(C)C(=O)c4sc5c(N6CCOCC6)nc(-c6cnc(N)nc6)nc5c4C)cc3)cc2CC[C@@H]1C [Cpd 039, (S)-N-(4-(1-acetyl-2-methyl-1,2,3,4-tetrahydroquinolin-6-yl)benzyl)-2-(2-aminopyrimidin-5-yl)-N,7-dimethyl-4-morpholinothieno[3,2-d]pyrimidine-6-carboxamide]",> 500
17,"CC(=O)N1c2ccc(-c3ccc(C(=O)NCCCNC(=O)c4cc5nc(-c6cnc(N)nc6)nc(N6CCOCC6)c5s4)cc3)cc2CC[C@@H]1C [Cpd 040, (S)-N-(3-(4-(1-Acetyl-2-methyl-1,2,3,4-tetrahydroquinolin-6-yl)benzamido)propyl)-2-(2-aminopyrimidin-5-yl)-4-morpholinothieno[3,2-d]pyrimidine-6-carboxamide]",> 500
18,"CC(=O)N1c2ccc(-c3ccc(C(=O)NCCCNC(=O)c4sc5c(N6CCOCC6)nc(-c6cnc(N)nc6)nc5c4C)cc3)cc2CC[C@@H]1C [Cpd 041, (S)-N-(3-(4-(1-Acetyl-2-methyl-1,2,3,4-tetrahydroquinolin-6-yl)benzamido)propyl)-2-(2-aminopyrimidin-5-yl)-7-methyl-4-morpholinothieno[3,2-d]pyrimidine-6-carboxamide]",> 500
19,"CC(=O)N1c2ccc(-c3ccc(CN(C)Cc4cc5nc(-c6cnc(N)nc6)nc(N6CCOCC6)c5s4)cc3)cc2CC[C@@H]1C [Cpd 042, (S)-1-(6-(4-((((2-(2-Aminopyrimidin-5-yl)-4-morpholinothieno[3,2-d]pyrimidin-6-yl)methyl)(methyl)amino)methyl)phenyl)-2-methyl-3,4-dihydroquinolin-1(2H)-yl)ethan-1-one]",> 500
20,"CC(=O)N1c2ccc(-c3ccc(CN(C)Cc4sc5c(N6CCOCC6)nc(-c6cnc(N)nc6)nc5c4C)cc3)cc2CC[C@@H]1C [Cpd 043, (S)-1-(6-(4-((((2-(2-aminopyrimidin-5-yl)-7-methyl-4-morpholinothieno[3,2-d]pyrimidin-6-yl)methyl)(methyl)amino)methyl)phenyl)-2-methyl-3,4-dihydroquinolin-1(2H)-yl)ethan-1-one]",> 500
21,"CC(=O)N1c2ccc(-c3ccc(CCNC(=O)c4cn5cc(-c6cnc(N)nc6)nc(N6CCOCC6)c5n4)cc3)cc2CC[C@@H]1C [Cpd 044, (S)-N-(4-(1-acetyl-2-methyl-1,2,3,4-tetrahydroquinolin-6-yl)phenethyl)-6-(2-aminopyrimidin-5-yl)-8-morpholinoimidazo[1,2-a]pyrazine-2-carboxamide]",100 to 500
22,"CC(=O)N1c2ccc(-c3ccc(CCNC(=O)c4cc5nc(-c6cnc(N)nc6)nc(N6CCOCC6)c5s4)cc3)cc2CC[C@@H]1C [Cpd 045, (S)-N-(4-(1-acetyl-2-methyl-1,2,3,4-tetrahydroquinolin-6-yl)phenethyl)-2-(2-aminopyrimidin-5-yl)-4-morpholinothieno[3,2-d]pyrimidine-6-carboxamide]",≤ 100
23,"CC(=O)N1c2ccc(-c3ccc(CCNC(=O)c4sc5c(N6CCOCC6)nc(-c6cnc(N)nc6)nc5c4C)cc3)cc2CC[C@@H]1C [Cpd 046, (S)-N-(4-(1-acetyl-2-methyl-1,2,3,4-tetrahydroquinolin-6-yl)phenethyl)-2-(2-aminopyrimidin-5-yl)-7-methyl-4-morpholinothieno[3,2-d]pyrimidine-6-carboxamide]",100 to 500
24,"CC(=O)N1c2ccc(-c3ccc(NC(=O)CNC(=O)c4sc5c(N6CCOCC6)nc(-c6cnc(N)nc6)nc5c4C)cc3)cc2CC[C@@H]1C [Cpd 047, (S)-N-(2-((4-(1-acetyl-2-methyl-1,2,3,4-tetrahydroquinolin-6-yl)phenyl)amino)-2-oxoethyl)-2-(2-aminopyrimidin-5-yl)-7-methyl-4-morpholinothieno[3,2-d]pyrimidine-6-carboxamide]",> 500
